The record followed here is patent US20040241755A1, “Human cell assay to determine effect of sample compounds on Col2 enhancer expression” (Pfizer Inc., priority 2003, published 2004).

Holding throughout (assay type): cell-based, human
One experiment deals with 48 bp Col2a1 enhancer. The experiment in a line: 48 bp Col2a1 enhancer luciferase reporter transfection assay in SW1353 cells. The settings on record: for relief of cytokine mediated inhibition of enhancer expression by co-treatment: co-treatment with TNFα or IL-1β, SW1353 cells; for reduction of enhancer driven luciferase expression: 10 ng/ml; for effect on Sox9 activity / responsiveness of SW1353 cells transfected with the 48 bp Col2a1 enhancer: concentration not given, data not shown. Here is the method: Reagents were obtained from Invitrogen unless otherwise noted. SW1353 human chondrosarcoma cells (ATCC #HTB-94) were grown in DMEM 10% FBS 10 ug/ml Gentamicin and passaged (2 times a week) using with 0.25% Trypsin-EDTA.
Cells were plated at ˜10^6 cells per flask into a T-75 in 10 ml growth media or an equivalent based on culture vessel surface area, 24 hours prior to transfection. For each transfection, 24 ul of Transit (PanVera) was diluted into 250 ul OptiMEM and 12 ug of reporter plasmid Col2a1 enhancer construct (48 bp Col2a1, was added. After 15-30 minute incubation, growth media was removed from the cells, and the DNA-transfection reagent complexes diluted to a final volume of 10 ml with OptiMEM and added to the cells. Transfection media was replaced with fresh media after 7 hours. 24 hours post transfection the cells were treated with media alone or indicated factors. Cells were harvested 48 hours post-transfection and luciferase activity measured using the LucLite and the TopCount LSC plate reader (Packard).
We analyzed the activity of the 48 bp Col2a1 enhancer construct (48 bp Col2a1) in transfected SW1353 cells. SW1353 cells were transfected with a constant amount of reporter (0.25 ug), with or without increasing amounts of the Sox9 expression construct or empty vector.

The subject of another experiment is Sox9 mRNA. Description: Sox9 mRNA expression in SW1353 cells by real time quantitative PCR (TaqMan). The settings on record: 48 hours, relative to GAPDH. Here is the method: RNA was prepared from 75 cm dishes using RNeasy Kits with DNAse treatment (Qiagen) according to the manufacturer's protocol except a second application of DNase was used. cDNA was prepared from 10-20 ul of RNA (1-4 ug) using random hexamer primers and PE Biosystems Reverse Transcription reagents. Taqman reactions used 8 ul cDNA and 2× PE Universal PCR Master Mix (PE Biosystems), 900 nM PCR primers and 200 nM FAM-TAMRA probe. Reactions (50 ul) were cycled and quantified using the PE 5700 with standard conditions for 45 cycles. The data was analyzed using GeneAmp5700 software Mix (PE Biosystems), adjusting the threshold to linear range for all samples. The ΔCt is calculated by subtracting normalizer (GAPDH) from corresponding gene-specific values. The ΔΔCt is calculated by subtracting treated ΔCt from control ΔCt. Fold induction is determined by calculating 2^ΔΔCt. Data is reported as % increase over control sample.
The effect of chondrocyte growth factors as well as inhibitory cytokines on the expression of Sox9 RNA in SW1353 cells using real time quantitative PCR (TaqMan, P E Applied Biosystems) was determined. Cells were cultured and treated with growth factors or cytokines as described above. After 48 hours cells were harvested and RNA prepared. A custom Sox9 primer probe set was validated by an efficiency plot over several logs and relative Sox 9 expression was quantified relative to GAPDH.

The test system of the next experiment is IL-8. Description: Induction of IL-8 expression in SW1353 cells. The settings on record: for stimulation of expression of IL-8: 10 ng/ml. Here is the method:
SW1353 cells were transfected with the 48 bp Col2a1 reporter and then treated with vehicle, TNFα (10 ng/ml) or IL-1β (10 ng/ml) (FIG. 2A).
The effect of increasing IL-1β doses on the two response was determined. […] Therefore, SW1353 cells appear to respond to a dynamic range of IL-1β levels with selective functional responses, making them potentially useful in models of both osteoarthritis and rheumatoid diseases.

A further experiment relates to matrix metalloproteases. Description: Stimulation of matrix metalloprotease expression in SW1353 cells. The note with it: data not shown.

“FGF-1: pro-chondrogenic fibroblast growth factor”: the “relief of cytokine mediated inhibition of enhancer expression by co-treatment” value in the experiment on 48 bp Col2a1 enhancer is listed as “partially relieved”. For the same molecule, the “increase in expression of Sox9 mRNA” value with Sox9 mRNA is on record as around 2 fold.

As for “FGF-2: pro-chondrogenic fibroblast growth factor”, the “relief of cytokine mediated inhibition of enhancer expression by co-treatment” value in the experiment with 48 bp Col2a1 enhancer is reported as “partially relieved”. The “increase in expression of Sox9 mRNA” value with Sox9 mRNA is “approximately 1.5 fold”.

IL-1β: pro-inflammatory cytokine: the “stimulation of expression of IL-8” value in the experiment with IL-8 is reported as “stimulate”. Besides, the “induction of IL-8” value in the experiment with IL-8 (IL-1 concentrations below 20 pg/ml) is given as “not detected”. Besides, in the experiment on 48 bp Col2a1 enhancer (transfected SW1353 cells), the “reduction of enhancer driven luciferase expression” value is around 50% and the “concentration giving maximal inhibition (repression) of Col2 enhancer activity” value is 20 pg/mL. The “stimulation of Col2 enhancer activity at very low levels” value with 48 bp Col2a1 enhancer (0.1-1 pg/ml, transfected SW1353 cells) is “about 150%”. Also, the “decrease in Sox9 expression” value with Sox9 mRNA is 60%. Also, the “stimulation of expression of matrix metalloproteases” value with matrix metalloproteases is “stimulate”.

Turning to “PTHrP: parathyroid hormone-related peptide”, the “effect on Sox9 activity / responsiveness of SW1353 cells transfected with the 48 bp Col2a1 enhancer” value (shortened to “effect on Sox9 activity / responsiveness”) in the experiment on 48 bp Col2a1 enhancer is “not seen an effect”.

“TGFα: growth factor to which SW1353 cells appear unresponsive”: the “effect on Sox9 activity / responsiveness” value in the experiment on 48 bp Col2a1 enhancer is listed as “unresponsive”.

On to TNFα, for which, in the experiment on IL-8, the “stimulation of expression of IL-8” value is given as “stimulate”. Further, the “reduction of enhancer driven luciferase expression” value in the experiment with 48 bp Col2a1 enhancer (transfected SW1353 cells) is on record as “approximately 60%”. Further, the “decrease in Sox9 expression” value in the experiment with Sox9 mRNA stood at 45%. In the experiment on matrix metalloproteases, the “stimulation of expression of matrix metalloproteases” value is on record as “stimulate”.

B1: BMP-6: BMP growth factor (protein, UniProt P22004 375-513, looked up)
Bone morphogenetic protein 6: SASSRRRQQSRNRSTQSQDVARVSSASDYNSSELKTACRKHELYVSFQDLGWQDWIIAPKGYAANYCDGECSFPLNAHMNATNHAIVQTLVHLMNPEYVPKPCCAPTKLNAISVLYFDDNSNVILKKYRNMVVRACGCH
Regarding B1, the “effect on Sox9 activity / responsiveness” value in the experiment with 48 bp Col2a1 enhancer is listed as “unresponsive”.

B2: BMP-4: BMP growth factor (protein, UniProt P12644 293-408, looked up)
Bone morphogenetic protein 4: SPKHHSQRARKKNKNCRRHSLYVDFSDVGWNDWIVAPPGYQAFYCHGDCPFPLADHLNSTNHAIVQTLVNSVNSSIPKACCVPTELSAISMLYLDEYDKVVLKNYQEMVVEGCGCR
With B2, the “effect on Sox9 activity / responsiveness” value in the experiment on 48 bp Col2a1 enhancer is on record as “unresponsive”.

B3: FGF-7: fibroblast growth factor which signals exclusively through the epithelial-cell restricted FGFRIIIb receptor (protein, UniProt P21781 32-194, looked up)
Fibroblast growth factor 7: CNDMTPEQMATNVNCSSPERHTRSYDYMEGGDIRVRRLFCRTQWYLRIDKRGKVKGTQEMKNNYNIMEIRTVAVGIVAIKGVESEFYLAMNKEGKLYAKKECNEDCNFKELILENHYNTYASAKWTHNGGEMFVALNQKGIPVRGKKTKKEQKTAHFLPMAIT
B3: in the experiment on 48 bp Col2a1 enhancer (200 ng/ml added to transfected SW1353 cultures), the “increase in expression of the 48 bp Col2a1 enhancer” value was “no effect”.
